The source of these data is publication PMC10574185, “Encapsulation and Biological Activity of Hesperetin Derivatives with HP-β-CD” (Molecules, 2023).

Data set [1] has as its system Escherichia coli ATCC 35218. Put plainly: Minimal inhibition concentration (dilution + diffusion-well). The settings on record: ATCC35218, 37 °C, 18 h. In kind it is cell-based. As to the method:
(§1) The MIC was performed for compounds and strains sensitive to their action in the antagonistic test. Minimum inhibitory concentration was determined by combining the dilution method with the diffusion-well method. Test compounds at a concentration of 500 μM were prepared in 5% (w/w) DMSO. Surface layer of microorganisms, against which antagonistic activity was noted, were prepared in the same way as for the antagonistic test. Then, two-fold sequential dilutions of the test compounds in the range of 500 µM to 62.5 µM were prepared. Wells with a diameter of 8 mm cut in the Mueller–Hinton Agar (Merck, Darmstadt, Germany) with the test strain were added with 50 µL of the prepared dilutions, which corresponded to the following concentrations of the tested compounds: […], 1.25 mM, 0.625 mM, and […]. Petri dishes prepared in this way were incubated at 37 °C for 18 h. After a given time, the MIC value was read. The MIC concentration expressed in µM was the first concentration of the tested compounds at which growth inhibition of the test strain was observed.

Data set [2] can be described thus: DPPH assay (antioxidant activity). The settings on record: concentration 0.1 mg/mL, mean ± SD. As to the method:
To evaluate the antioxidant ability of the tested systems, antioxidant analysis was performed. Antioxidants can scavenge hydroxyl radicals in two ways: by reacting directly with hydroxyl radicals (DPPH^•, ABTS^•+) or indirectly inhibiting the formation of hydroxyl radicals by chelating metal ions involved in the production of hydroxyl radicals. The antioxidant activity of the systems studied was investigated by using DPPH^• scavenging, ABTS^•+ scavenging ability, and Fe^2+-chelating ability. In this study, the antioxidant activity of pure hesperetin and its Schiff bases (HHSB, HIN, and HTSC) and HP-β-CD complexes were compared, and the positive control was Trolox.
The detailed methodology of DPPH assay was described in the previous paper by Sykuła et al..
Background: Loss of DPPH colour is used to gauge radical scavenging.

Data set [3] deals with Escherichia coli ATCC 11303. Put plainly: Minimal inhibition concentration (dilution + diffusion-well). In kind it is cell-based. The settings on record: ATCC11303, 37 °C, 18 h. As to the method: as §1
Data set [4] has as its system Staphylococcus aureus ATCC 29737. The data set is described as above. In kind it is cell-based. Particulars: ATCC29737, 37 °C, 18 h. Here is the method:
as §1

A further data set has as its system Pseudomonas aeruginosa. More on the design: method as in PMID 36009336. The settings on record: cited from earlier work.
For data set [5] the following is noted: pH 6.5; cited from earlier work.
In the next data set the test system is Escherichia coli. More on the design: method as in PMID 36009336. The settings on record: cited from earlier work.
The test system of another data set is Bacillus cereus. Details: method as in PMID 36009336. Particulars: cited from earlier work.
A further data set relates to prostate cancer cells. The settings on record: cited from earlier work.
The next data set deals with Staphylococcus aureus. More on the design: method as in PMID 36009336. Particulars: cited from earlier work.

The structures appear in SMILES notation. Converted amounts (≈) assume the structure as drawn.

As usually defined, the MIC is the lowest concentration that inhibits growth of the organism.

Turning to `COc1ccc(C2C/C(=N\NC(=O)c3ccccc3)c3c(O)cc(O)cc3O2)cc1O` (racemic) [HHSB], the MIC in data set [1] amounted to 2.5 µM. The molecule also registered a DPPH antioxidant activity in data set [2] of 44.29 ± 4.5%.
Regarding `COc1ccc(C2C/C(=N\NC(=O)c3ccncc3)c3c(O)cc(O)cc3O2)cc1O` (racemic) [HIN], the MIC in data set [3] was determined as 2.5 µM. Also, the DPPH antioxidant activity in [2] turned out to be 34.62 ± 3.8%.
On to `COc1ccc(C2CC(=NNC(N)=S)c3c(O)cc(O)cc3O2)cc1O` (stereo not drawn) [HTSC, N-[2,3-dihydro-5,7-dihydroxy-2-(3-hydroxy-4-methoxyphenyl)chromen-4-ylidene]thiosemicarbazide], for which the minimum inhibitory concentration (MIC) in [4] came to 2.5 µM. In [2], this molecule showed a DPPH antioxidant activity of 93.72 ± 6.8%.
Consider `COc1ccc(C2CC(=O)c3c(O)cc(O)cc3O2)cc1O` (stereo not drawn) [Hesperetin, 3′,5,7-Trihydroxy-4′-methoxyflavanone], for which the MIC with Pseudomonas aeruginosa was 500 µg/mL (≈ 1650 µM); in the data set with Escherichia coli, 500 µg/mL (≈ 1650 µM); in the data set with Bacillus cereus, 250 µg/mL (≈ 827 µM); in the data set on Staphylococcus aureus, 125 µg/mL (≈ 414 µM); in data set [3] it was 2.5 µM. For the same molecule, the “increase of hesperetin solubility with HP-β-CD” value in data set [5] is listed as 164 times. Also, the “decrease in the cytotoxicity of cabazitaxel” value with prostate cancer cells was 13.1 fold. In addition, in the data set with prostate cancer cells, the “decrease in the cytotoxicity of docetaxel” value is reported as 9.8 fold. The molecule also showed a DPPH antioxidant activity in data set [2] of 38.08 ± 2.7%.
